Measurements taken from ChEMBL document CHEMBL1201862, “PubChem BioAssay data set” (2004).
One block for each compound: values may come before it. Activity calls are given as the source filed them.

Assays:
[1] = target: T1, Scavenger receptor class B member 1 (Mus musculus, UniProt Q61009); experiment: mouse SR-BI DiI-HDL uptake blockers – ldlA[mSR-BI] cells, fluorescence, cherry pick, dose response (AID 493194); format: functional, cell-based;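 note: cellular uptake of fluorescent DiI-labeled HDL measured as cell fluorescence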
T1 sequence (Q61009 whole entry): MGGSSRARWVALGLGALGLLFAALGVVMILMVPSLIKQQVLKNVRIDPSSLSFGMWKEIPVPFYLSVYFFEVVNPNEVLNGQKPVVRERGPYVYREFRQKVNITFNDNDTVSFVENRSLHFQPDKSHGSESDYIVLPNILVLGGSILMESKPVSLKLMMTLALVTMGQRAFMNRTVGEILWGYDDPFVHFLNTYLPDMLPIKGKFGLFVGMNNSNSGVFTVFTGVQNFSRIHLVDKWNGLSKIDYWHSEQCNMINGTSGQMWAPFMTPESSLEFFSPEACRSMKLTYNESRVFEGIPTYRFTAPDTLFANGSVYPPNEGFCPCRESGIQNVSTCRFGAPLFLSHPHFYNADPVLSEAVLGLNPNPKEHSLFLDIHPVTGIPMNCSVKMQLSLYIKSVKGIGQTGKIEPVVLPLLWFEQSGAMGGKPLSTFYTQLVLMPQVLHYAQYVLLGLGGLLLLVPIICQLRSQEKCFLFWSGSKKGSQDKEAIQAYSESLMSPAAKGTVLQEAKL

[2] = system: INS1; experiment: INS-1E survival protection against cytokine death – cell-based, luminescence, retest, dose response (AID 449756); format: functional; details: Rattus norvegicus;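 note: cell death triggered by IL-1 beta plus TNF-alpha plus IFN-gamma mixture; protective hits raise ATP signal compared with cytokine alone wells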
[3] = system: HeLa; experiment: viability loss in HeLa cells – cell-based, 24 h, cherry-picked samples, cytotoxicity control, dose response (AID 504726); format: functional; details: Homo sapiens;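 note: potency for cytotoxicity as loss of luminescence signal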
[4] = target: Induced myeloid leukemia cell differentiation protein Mcl-1 (Homo sapiens, UniProt Q07820); format: functional
Chain of Induced myeloid leukemia cell differentiation protein Mcl-1 (Q07820 whole entry): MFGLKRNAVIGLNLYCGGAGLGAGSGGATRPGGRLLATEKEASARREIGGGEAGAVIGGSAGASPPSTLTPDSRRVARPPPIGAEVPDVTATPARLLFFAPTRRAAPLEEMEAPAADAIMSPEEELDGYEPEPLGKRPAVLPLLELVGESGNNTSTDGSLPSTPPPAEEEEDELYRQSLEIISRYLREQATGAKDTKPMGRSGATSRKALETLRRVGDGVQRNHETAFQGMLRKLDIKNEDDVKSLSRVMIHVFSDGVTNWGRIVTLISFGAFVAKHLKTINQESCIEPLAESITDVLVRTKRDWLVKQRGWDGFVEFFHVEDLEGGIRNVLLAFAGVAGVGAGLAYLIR

[5] = target: Beta-galactosidase (Escherichia coli, UniProt Q8VNN2); experiment: detection-enzyme interference by beta-gal modulators – biochemical, E. coli enzyme, set 3, artefact control for CCR6 antagonist project, dose response (AID 504712); format: functional
[6] = target: C-C chemokine receptor type 6 (Homo sapiens, UniProt P51684); experiment: antagonism of CCR6 beta-arrestin recruitment – cell-based, luminescent beta-arrestin readout, dose response (AID 504728); format: functional
[7] = target: DNA damage-inducible transcript 3 protein (Mus musculus, UniProt P35639); format: functional, Cricetulus griseus
Chain of DNA damage-inducible transcript 3 protein (P35639 whole entry): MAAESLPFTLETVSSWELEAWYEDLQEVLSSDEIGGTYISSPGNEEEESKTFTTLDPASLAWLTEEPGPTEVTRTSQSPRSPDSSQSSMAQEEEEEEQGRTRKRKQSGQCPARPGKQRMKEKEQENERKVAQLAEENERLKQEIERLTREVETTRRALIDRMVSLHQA

[8] = target: Eukaryotic translation initiation factor 4E (Mus musculus, UniProt P63073); experiment: blockers of eIF4G binding by eIF4E – biochemical, TR-FRET, dose response (AID 855); format: functional;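 note: potency for disrupting eIF4E binding to eIF4GI seen as loss of FRET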
Chain of Eukaryotic translation initiation factor 4E (P63073 whole entry): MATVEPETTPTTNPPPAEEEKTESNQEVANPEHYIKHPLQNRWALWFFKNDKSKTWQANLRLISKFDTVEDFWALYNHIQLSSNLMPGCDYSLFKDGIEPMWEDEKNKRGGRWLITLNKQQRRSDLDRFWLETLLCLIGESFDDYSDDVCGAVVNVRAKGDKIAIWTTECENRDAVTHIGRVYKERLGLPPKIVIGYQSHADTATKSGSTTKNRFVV

[9] = target: T2, Hexokinase HKDC1 (Homo sapiens, UniProt Q2TB90); experiment: inhibition of HKDC1 glucose phosphorylation – biochemical, W721R variant, dose response (AID 504729); format: functional
T2 sequence (Q2TB90 whole entry): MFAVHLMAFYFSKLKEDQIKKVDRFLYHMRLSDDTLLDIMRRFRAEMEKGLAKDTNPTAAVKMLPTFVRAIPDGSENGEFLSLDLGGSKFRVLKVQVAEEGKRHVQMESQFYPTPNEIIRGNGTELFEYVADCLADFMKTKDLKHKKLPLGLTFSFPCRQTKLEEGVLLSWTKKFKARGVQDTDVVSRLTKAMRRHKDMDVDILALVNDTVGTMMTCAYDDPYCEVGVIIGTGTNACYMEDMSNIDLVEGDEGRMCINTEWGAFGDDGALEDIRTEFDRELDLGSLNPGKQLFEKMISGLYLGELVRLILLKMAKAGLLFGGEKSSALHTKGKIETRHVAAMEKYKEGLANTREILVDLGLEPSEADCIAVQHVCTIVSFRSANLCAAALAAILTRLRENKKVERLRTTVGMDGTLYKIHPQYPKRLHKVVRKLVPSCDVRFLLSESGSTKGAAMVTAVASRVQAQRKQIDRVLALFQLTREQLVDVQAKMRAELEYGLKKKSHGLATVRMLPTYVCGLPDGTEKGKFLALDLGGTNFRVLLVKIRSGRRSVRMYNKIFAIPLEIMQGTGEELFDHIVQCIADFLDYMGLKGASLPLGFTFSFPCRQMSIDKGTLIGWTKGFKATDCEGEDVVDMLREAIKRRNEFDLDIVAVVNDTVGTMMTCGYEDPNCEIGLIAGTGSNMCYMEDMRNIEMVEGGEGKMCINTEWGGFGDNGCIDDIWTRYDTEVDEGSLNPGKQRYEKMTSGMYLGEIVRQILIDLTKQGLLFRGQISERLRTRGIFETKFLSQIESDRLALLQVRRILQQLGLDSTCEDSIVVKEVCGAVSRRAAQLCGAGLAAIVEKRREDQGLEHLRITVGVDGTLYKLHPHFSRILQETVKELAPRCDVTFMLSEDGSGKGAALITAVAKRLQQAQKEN

[10] = target: Melanin-concentrating hormone receptor 1 (Homo sapiens, UniProt Q99705); experiment: Late-stage fluorescence-based counterscreen for antagonists of the G-protein coupled receptor 7 (GPR7): cell-based dose response assay to identify antagonists of the melanin-concentrating hormone receptor 1 (MCHR1). [Related pubchem assays (depositor defined):AID1861, AID1880, AID1952, AID2148, AID2251, AID2257, AID485339]; format: functional;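 note: stimulated with 30 nM MCH peptide agonist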
[11] = target: Neuropeptides B/W receptor type 1 (Homo sapiens, UniProt P48145); experiment: human NPBW1 receptor blockade, IC50 – cell-based, fluorescence, dose response, late-stage follow-up (AID 463251); format: functional
Chain of Neuropeptides B/W receptor type 1 (P48145 whole entry): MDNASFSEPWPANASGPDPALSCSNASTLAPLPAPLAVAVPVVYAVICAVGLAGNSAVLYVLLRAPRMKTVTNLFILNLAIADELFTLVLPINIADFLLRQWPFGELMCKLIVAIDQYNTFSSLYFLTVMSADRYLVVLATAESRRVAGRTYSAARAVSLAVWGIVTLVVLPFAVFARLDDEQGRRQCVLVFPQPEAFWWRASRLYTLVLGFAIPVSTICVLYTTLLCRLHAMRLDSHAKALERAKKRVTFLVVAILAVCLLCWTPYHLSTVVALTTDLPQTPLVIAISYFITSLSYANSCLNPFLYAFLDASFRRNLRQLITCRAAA

[12] = target: T3, Fatty acid synthase (Homo sapiens, UniProt P49327); experiment: inhibition of human FAS-TE enzyme activity – biochemical, kinetic fluorescence intensity, dose response (AID 624326); format: functional;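 note: rate of fluorescence rise from hydrolysis of a fluorogenic O-methyl fluorescein ester substrate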
T3 sequence (P49327 whole entry): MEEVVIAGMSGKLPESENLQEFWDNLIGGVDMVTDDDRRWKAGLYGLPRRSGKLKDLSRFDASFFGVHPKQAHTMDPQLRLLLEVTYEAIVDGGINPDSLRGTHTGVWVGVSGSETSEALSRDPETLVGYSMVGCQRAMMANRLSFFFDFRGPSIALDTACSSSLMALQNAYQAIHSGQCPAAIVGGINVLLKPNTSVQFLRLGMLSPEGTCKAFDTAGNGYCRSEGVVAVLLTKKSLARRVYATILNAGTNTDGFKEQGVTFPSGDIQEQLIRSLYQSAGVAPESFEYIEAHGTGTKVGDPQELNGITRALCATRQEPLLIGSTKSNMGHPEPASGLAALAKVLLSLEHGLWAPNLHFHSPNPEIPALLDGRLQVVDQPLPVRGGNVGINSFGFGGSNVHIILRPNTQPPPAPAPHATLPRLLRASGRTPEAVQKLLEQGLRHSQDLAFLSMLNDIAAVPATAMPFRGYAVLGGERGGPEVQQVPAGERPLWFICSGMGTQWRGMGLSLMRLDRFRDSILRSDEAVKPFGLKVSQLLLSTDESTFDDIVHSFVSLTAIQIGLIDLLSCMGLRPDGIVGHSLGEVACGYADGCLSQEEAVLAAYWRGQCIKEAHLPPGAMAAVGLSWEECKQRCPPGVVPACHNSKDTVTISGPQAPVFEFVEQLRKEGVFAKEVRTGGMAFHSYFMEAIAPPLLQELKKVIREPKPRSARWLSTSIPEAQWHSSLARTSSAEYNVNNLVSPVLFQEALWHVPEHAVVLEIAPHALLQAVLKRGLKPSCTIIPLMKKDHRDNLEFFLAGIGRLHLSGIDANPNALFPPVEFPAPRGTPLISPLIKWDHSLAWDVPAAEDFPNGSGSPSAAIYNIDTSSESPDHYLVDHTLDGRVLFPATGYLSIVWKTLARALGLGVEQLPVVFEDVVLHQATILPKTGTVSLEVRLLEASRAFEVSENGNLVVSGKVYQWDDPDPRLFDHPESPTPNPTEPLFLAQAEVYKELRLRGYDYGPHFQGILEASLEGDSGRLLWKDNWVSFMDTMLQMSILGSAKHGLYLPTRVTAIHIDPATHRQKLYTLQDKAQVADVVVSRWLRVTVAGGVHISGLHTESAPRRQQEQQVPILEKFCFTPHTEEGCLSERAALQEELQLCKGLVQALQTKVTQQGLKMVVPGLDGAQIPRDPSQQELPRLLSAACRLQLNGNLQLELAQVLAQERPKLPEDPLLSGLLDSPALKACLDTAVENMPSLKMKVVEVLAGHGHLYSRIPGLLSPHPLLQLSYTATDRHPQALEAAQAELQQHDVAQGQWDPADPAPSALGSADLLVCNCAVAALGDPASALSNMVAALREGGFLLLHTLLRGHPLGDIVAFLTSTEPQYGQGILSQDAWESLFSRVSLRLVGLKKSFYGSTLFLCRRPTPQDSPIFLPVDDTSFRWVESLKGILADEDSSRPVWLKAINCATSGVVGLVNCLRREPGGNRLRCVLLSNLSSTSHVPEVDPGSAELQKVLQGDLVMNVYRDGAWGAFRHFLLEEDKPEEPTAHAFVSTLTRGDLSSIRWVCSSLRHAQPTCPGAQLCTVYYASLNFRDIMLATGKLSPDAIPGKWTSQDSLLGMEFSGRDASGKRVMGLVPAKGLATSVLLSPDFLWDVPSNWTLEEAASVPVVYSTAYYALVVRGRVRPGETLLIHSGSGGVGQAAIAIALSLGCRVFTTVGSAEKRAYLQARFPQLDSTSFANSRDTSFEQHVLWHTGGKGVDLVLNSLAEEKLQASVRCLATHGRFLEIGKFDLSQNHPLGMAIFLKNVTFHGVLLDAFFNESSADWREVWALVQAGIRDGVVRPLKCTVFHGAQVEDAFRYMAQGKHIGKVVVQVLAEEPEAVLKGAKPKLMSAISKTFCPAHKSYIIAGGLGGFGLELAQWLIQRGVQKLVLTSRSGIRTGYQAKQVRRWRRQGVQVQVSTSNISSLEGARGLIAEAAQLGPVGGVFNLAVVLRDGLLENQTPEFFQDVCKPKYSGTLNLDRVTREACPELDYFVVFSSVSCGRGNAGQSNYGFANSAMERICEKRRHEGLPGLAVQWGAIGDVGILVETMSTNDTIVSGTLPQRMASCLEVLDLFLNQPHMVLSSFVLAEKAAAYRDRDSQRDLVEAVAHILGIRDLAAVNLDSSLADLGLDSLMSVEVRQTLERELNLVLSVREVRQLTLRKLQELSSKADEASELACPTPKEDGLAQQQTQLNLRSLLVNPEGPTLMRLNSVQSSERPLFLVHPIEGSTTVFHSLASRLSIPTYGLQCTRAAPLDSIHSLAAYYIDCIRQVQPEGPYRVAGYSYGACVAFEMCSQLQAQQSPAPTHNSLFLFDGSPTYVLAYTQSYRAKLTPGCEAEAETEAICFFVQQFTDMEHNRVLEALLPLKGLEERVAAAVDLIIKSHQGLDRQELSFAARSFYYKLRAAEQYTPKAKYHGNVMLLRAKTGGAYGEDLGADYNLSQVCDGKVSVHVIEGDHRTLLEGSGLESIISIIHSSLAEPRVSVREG

[13] = target: T4, Coagulation factor XII (Homo sapiens, UniProt P00748); format: functional;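 note: activated factor XIIa alpha cleaving a fluorogenic AMC peptide substrate; inhibitor potency from loss of enzyme activity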
T4 sequence (P00748 whole entry): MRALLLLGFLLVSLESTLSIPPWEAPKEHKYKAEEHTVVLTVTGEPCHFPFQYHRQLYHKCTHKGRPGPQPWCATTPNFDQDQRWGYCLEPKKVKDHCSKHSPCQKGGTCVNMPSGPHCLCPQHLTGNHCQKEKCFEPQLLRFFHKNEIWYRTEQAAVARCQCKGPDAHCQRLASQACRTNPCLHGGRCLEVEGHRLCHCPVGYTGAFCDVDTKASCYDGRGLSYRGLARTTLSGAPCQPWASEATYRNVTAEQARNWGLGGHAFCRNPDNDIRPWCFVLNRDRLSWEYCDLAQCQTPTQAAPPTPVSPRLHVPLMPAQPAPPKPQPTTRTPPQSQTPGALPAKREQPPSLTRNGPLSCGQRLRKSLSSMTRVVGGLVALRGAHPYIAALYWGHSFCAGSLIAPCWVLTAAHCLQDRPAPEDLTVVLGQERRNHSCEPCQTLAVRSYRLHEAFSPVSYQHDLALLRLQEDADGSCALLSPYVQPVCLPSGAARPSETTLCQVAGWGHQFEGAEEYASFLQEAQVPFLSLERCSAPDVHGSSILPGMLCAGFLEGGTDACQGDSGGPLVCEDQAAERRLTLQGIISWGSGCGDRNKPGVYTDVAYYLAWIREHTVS

[14] = target: Prothrombin (Homo sapiens, UniProt P00734); experiment: Thrombin 1536 HTS Dose Response Confirmation. [Related pubchem assays: 1046 (Thrombin 1536 HTS; hits were confirmed in this assay)]; format: functional
[15] = target: Genome polyprotein (dengue virus type 2, UniProt P29990); experiment: flavivirus cap methylation enzyme inhibition – biochemical, confirmation dose response, primary screen (AID 588689); format: functional
Chain of Genome polyprotein (P29990 2492-3391 limits assumed): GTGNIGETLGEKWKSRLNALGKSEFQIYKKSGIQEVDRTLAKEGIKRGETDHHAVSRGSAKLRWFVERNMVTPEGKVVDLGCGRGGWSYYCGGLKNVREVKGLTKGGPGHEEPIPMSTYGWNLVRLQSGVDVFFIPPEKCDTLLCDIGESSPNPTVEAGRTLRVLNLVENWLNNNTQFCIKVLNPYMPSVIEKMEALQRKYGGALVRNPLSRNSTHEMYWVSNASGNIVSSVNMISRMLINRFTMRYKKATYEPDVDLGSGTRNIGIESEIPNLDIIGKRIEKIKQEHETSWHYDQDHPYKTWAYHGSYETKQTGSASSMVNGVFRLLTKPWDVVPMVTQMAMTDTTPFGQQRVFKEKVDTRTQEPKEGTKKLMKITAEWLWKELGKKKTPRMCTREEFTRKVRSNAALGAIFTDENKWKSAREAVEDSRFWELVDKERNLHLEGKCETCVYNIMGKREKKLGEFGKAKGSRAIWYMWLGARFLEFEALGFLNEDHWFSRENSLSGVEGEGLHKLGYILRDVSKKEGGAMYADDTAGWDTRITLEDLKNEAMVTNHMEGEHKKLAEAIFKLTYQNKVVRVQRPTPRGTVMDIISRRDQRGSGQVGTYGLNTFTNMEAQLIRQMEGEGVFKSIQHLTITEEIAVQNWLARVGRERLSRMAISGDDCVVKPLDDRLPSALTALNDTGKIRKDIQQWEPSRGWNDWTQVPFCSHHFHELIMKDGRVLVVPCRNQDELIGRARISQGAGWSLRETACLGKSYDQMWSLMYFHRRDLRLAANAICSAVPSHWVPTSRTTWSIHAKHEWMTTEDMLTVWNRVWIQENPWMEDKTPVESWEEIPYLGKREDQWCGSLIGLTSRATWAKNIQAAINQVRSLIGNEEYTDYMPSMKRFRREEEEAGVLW

[16] = target: T3, Fatty acid synthase; experiment: inhibition of human FAS-TE enzyme activity – biochemical, endpoint fluorescence intensity, uHTS hits, dose response (AID 624327); format: functional;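 note: fluorescence from hydrolysis of an O-methyl fluorescein acyl ester substrate by the enzyme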
[17] = target: X-box-binding protein 1 (Homo sapiens, UniProt P17861); format: functional, Cricetulus griseus;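 note: confirmatory dose-response counter-screen serving a CHOP assay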
[18] = target: Dual specificity protein phosphatase 3 (Homo sapiens, UniProt P51452); experiment: inhibition constants for human DUSP3 – biochemical, colorimetric, SAR follow-up (AID 2004)
Chain of Dual specificity protein phosphatase 3 (P51452 whole entry): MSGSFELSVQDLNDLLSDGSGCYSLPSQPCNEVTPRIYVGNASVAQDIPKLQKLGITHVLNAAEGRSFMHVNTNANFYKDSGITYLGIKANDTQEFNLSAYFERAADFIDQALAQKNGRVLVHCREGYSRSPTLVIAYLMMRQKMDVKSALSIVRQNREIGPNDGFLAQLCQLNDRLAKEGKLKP

[19] = target: T5, Protein phosphatase methylesterase 1 (Homo sapiens, UniProt Q9Y570); experiment: Late stage results from the probe development effort to identify inhibitors of the protein methylesterase PME-1: Gel-based Activity-Based Protein Profiling (ABPP) IC50: Purified enzyme.; format: functional
T5 sequence (Q9Y570 whole entry): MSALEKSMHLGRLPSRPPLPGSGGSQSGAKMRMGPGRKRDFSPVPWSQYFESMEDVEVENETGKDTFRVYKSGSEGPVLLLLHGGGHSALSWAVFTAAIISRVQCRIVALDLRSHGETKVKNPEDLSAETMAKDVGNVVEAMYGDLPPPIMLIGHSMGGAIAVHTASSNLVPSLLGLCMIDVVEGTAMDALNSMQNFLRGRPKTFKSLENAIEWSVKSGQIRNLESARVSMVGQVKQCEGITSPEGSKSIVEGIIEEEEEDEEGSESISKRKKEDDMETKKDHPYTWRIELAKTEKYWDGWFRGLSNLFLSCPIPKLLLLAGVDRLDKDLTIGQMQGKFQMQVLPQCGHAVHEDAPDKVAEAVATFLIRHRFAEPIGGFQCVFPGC

[20] = target: T5, Protein phosphatase methylesterase 1; experiment: endogenous PME-1 and serine hydrolase inhibition – cell lysate, mouse brain cytosol, FP-rhodamine, gel ABPP, selectivity assay for PME-1 inhibitor project, dose response, panel member PME-1 Assay Panel member description: Inhibition of endogenously expressed PME-1 (AID 2366)
[21] = blockers of CRF-binding protein–CRF-R2 complex – cell-based, uHTS hits, 384-well, dose response (AID 651639); format: functional, Homo sapiens; details: read-out: IC50_Mean
[22] = target: T6, Corticotropin-releasing factor receptor 2/Corticotropin-releasing factor-binding protein (Homo sapiens, UniProt P24387+Q13324); experiment: Dose Response confirmation of uHTS hits for small molecule antagonists of the CRF-binding protein and CRF-R2 receptor complex.; format: functional; details: read-out: IC50_Mean
T6 sequence (Q13324 whole entry): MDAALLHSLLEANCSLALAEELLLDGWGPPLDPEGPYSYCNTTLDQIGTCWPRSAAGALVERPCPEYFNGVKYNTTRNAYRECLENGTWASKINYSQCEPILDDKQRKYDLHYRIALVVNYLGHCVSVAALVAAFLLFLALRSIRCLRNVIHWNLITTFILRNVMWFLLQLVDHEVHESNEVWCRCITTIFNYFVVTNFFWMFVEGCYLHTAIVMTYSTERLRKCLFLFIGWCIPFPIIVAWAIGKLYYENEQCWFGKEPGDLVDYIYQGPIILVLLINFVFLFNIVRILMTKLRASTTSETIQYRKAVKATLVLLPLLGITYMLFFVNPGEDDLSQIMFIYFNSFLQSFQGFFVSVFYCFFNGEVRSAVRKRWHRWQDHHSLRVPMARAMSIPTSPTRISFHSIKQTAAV
T6 sequence (P24387 whole entry): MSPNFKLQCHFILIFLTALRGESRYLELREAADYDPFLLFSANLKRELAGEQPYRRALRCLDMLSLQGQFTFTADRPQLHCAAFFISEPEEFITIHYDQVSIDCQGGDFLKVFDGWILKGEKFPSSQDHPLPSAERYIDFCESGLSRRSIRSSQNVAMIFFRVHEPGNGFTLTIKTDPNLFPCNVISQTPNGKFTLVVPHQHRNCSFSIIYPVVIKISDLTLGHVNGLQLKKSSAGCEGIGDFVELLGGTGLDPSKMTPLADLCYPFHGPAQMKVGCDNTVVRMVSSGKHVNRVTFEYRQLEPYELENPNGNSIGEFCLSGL

[23] = target: T7, Carboxy-terminal domain RNA polymerase II polypeptide A small phosphatase 1 (Homo sapiens, UniProt Q9GZU7); experiment: CTDSP1 inhibitors, concentration-response, biochemical, absorbance readout, ultra-high-throughput screen actives (AID 540297); format: functional
T7 sequence (Q9GZU7 whole entry): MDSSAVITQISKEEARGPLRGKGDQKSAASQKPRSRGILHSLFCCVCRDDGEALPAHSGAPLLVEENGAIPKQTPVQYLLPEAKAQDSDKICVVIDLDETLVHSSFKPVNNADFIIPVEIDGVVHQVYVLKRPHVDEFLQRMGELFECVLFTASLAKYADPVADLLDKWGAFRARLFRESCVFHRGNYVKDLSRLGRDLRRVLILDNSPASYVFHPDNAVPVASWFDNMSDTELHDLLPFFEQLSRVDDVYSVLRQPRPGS

[24] = target: Envelope glycoprotein gp160 (Human immunodeficiency virus 1, UniProt Q6QLK5); experiment: cell-free HIV fusion peptide-binding blockers – biochemical, uHTS, fluorescence dequenching, […] (AID 1986)
[25] = target: T6, Corticotropin-releasing factor receptor 2/Corticotropin-releasing factor-binding protein; experiment: activators of CRF receptor 2 with binding protein – uHTS hits, confirmation (AID 602473); format: functional; details: read-out: EC50_Mean

AC50 [1]: 1.56 µM (active)
Structure (SMILES): CC(OC(=O)c1cccc(NS(C)(=O)=O)c1)C(=O)Nc1ccc(N2CCOCC2)cc1 (stereo unspecified)

Structure (SMILES): Cc1ccc(S(=O)(=O)/N=C2/C=C(Sc3nc[nH]n3)C(=O)c3ccccc32)cc1
AC50 [2]: 6.84 µM (active) | AC50 [3]: 23.1 µM (active) | IC50 [4]: 19.7 µM (active) | IC50 [5]: > 66.6 µM (inactive) | IC50 [6]: 3.12 µM (active) | Absolute IC50 (CHOP) [7]: 10 µM | IC50 [8]: > 64 µM (inactive) | IC50 [9]: 1.8 µM (active)

IC50 [10]: 3.7 µM (active) | IC50 [11]: 1.1 µM (active)
Structure (SMILES): CCOC(=O)c1cccc(-n2ncc(Cl)c(Oc3ccc(OC)cc3)c2=O)c1

Structure (SMILES): Cc1ccc(C)c(S(=O)(=O)ON2C(=O)c3ccccc3C2=O)c1
IC50 [12]: 3.7 µM (active) | IC50 [13]: 2.59 µM (active) | IC50 [14]: 1.57 µM (active) | IC50 [15]: > 100 µM (active) | Absolute IC50 (CHOP) [7]: 10 µM | IC50 [16]: 1.72 µM (active) | Absolute IC50 (XBP1) [17]: 10 µM

Structure (SMILES): S=C(NCCN1CCOCC1)Nc1ccccc1
Ki [18]: 64.3 µM (inactive)

IC50 [19]: > 20 µM (not active) | IC50 [20]: > 20 µM (inactive)
Structure (SMILES): CS(=O)(=O)C(C#N)Cc1cccn1S(=O)(=O)c1ccccc1 (stereo unspecified)

IC50 [21]: 4.48 µM (active) | IC50 [22]: 1.84 µM (active) | IC50 [23]: 3.15 µM (active) | IC50 [24]: > 99 µM (inactive) | EC50 [25]: > 53 µM (inactive)
Structure (SMILES): COc1cc(/C=C2\C(=N)N3N=C(S(C)(=O)=O)SC3=NC2=O)ccc1OCCOc1ccc(C)cc1
